Data on three compounds can be found in patent publication US20080132446A1, “Uses of neuronal pannexins for therapy and diagnosis in mammals” (INSTITUT PASTEUR, priority 2003, published 2008).

Usually Hill coefficient stands for a measure of the steepness of the concentration-response curve. Broadly, the IC50 is the midpoint of a concentration-inhibition curve.

Molecules are shown by their SMILES. Where “and” joins values, the source holds several entries; their conditions need not be identical. Equal values may be shown once. Entries after “also recorded” stand apart in the source; their conditions may differ. Where only a bound is given, the exact number is not on record here.

Type in all cases: cell-based
One experiment addresses T1, Px1 hemi-channels (Rattus norvegicus, UniProt P60570).
T1 construct: expressed in transfected cells; host or cells: Xenopus laevis oocytes injected with in vitro transcribed RNA (pBSxG vector) plus antisense to endogenous Cx38
Put plainly: Px1 hemi-channel currents in single Xenopus oocytes (two-electrode voltage-clamp). The protocol: For physiological analysis, cells were injected with a total volume of 40 nl of either an antisense oligonucleotide (3 ng/cell) to suppress the endogenous Xenopus Cx38 (30), or a mixture of antisense plus the specified RNA (20-80 ng/cell). The ability of pannexins to form hemi-channels was assessed in single oocytes 2-4 days after RNA injection, using a two-electrode voltage-clamp.
Whole-cell membrane currents (Im) were measured from single oocytes co-injected with pannexin RNAs and an oligonucleotide antisense to Xenopus Cx38 (FIG. 3A). Cells were initially clamped at a membrane potential (Vm) of −40 mV and depolarizing steps lasting 2 sec were applied in 10 mV increments up to +60 mV (bottom traces).
(§1) Stage V-VI cells were individually selected under a dissecting microscope and cultured thereafter in control medium at 18° C. For physiological analysis, all cells were injected with a total volume of 40 nl of either an antisense oligonucleotide (3 ng/cell) to suppress the endogenous Xenopus Cx38 (30; 51), or a mixture of antisense (as above) plus the specified pannexin or connexin RNA. The following amounts of RNAs were injected: 40-80 ng/cell for Px1 and Px2 RNAs, either separately or co-injected at a 1:1 ratio; 4 ng/cell for Cx46; 10-20 ng/cell for Cx52.6. For analysis of Cx46 hemi-channels, the extracellular Ca^2+ concentration was raised to 2.9 mM to prevent the lysis of the injected oocytes that occurs in control medium, which contains 0.9 mM Ca^2+ (53). To characterize hemi-channel activity, current recordings were performed in single oocytes 24-96 hr after RNA injection, using a two-electrode voltage-clamp procedure.
(§2) The setup, hardware and software used for electrophysiological measurements and data analysis were as previously described (54; 49). Cells were clamped at −40 mV, and whole cell currents recorded in response to depolarizing voltage steps (from −20 to +60 mV in 20 mV increments) imposed for 2 sec. Current outputs were filtered at 200 Hz and sampled at 500 Hz.
All experiments were carried out at 18° C. Carbenoxolone (the succinyl ester of glycyrrhetinic acid), β-glycyrrhetinic acid and flufenamic (Sigma-Aldrich) were prepared freshly by dissolving them in either water (in the case of carbenoxolone) or dimethyl sulfoxide (DMSO), whose final concentration never exceeded 0.1%. […] Oocytes were placed on a Teflon tubing in a perfusion chamber and drugs were delivered using an electronically controlled gravity flow perfusion system (ALA Scientific Instruments, Westbury, N.Y.). […] Current-voltage (I-V) relationships were generated by plotting peak current values above holding currents (ΔIm) versus membrane potential. The time constants (τ) of voltage-dependent transitions of hemi-channel currents were calculated using data fitting functions in Origin 6.0 (Microcal Software, Northampton, Mass.). In all experiments, positive controls showing the effect of the tested drugs were routinely included.

For the next experiment, the target named is T2, Px1/Px2 hemi-channels (Rattus norvegicus, UniProt P60570+P60571).
T2 construct: expressed in transfected cells; host or cells: Xenopus laevis oocytes co-injected with Px1 and Px2 RNA (1:1) plus antisense to endogenous Cx38
T2 sequence (P60570 whole entry): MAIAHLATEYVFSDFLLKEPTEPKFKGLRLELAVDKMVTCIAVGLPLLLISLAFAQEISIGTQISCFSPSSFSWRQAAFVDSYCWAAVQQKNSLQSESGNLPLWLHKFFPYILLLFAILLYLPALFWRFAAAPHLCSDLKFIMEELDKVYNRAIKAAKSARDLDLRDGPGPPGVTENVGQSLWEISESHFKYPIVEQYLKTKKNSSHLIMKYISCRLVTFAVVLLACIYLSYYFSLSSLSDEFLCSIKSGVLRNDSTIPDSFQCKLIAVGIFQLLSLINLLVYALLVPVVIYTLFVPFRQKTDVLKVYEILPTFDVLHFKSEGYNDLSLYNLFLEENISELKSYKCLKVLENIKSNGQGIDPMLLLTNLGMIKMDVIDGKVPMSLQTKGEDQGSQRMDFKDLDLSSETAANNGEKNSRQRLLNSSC
T2 sequence (P60571 11-674): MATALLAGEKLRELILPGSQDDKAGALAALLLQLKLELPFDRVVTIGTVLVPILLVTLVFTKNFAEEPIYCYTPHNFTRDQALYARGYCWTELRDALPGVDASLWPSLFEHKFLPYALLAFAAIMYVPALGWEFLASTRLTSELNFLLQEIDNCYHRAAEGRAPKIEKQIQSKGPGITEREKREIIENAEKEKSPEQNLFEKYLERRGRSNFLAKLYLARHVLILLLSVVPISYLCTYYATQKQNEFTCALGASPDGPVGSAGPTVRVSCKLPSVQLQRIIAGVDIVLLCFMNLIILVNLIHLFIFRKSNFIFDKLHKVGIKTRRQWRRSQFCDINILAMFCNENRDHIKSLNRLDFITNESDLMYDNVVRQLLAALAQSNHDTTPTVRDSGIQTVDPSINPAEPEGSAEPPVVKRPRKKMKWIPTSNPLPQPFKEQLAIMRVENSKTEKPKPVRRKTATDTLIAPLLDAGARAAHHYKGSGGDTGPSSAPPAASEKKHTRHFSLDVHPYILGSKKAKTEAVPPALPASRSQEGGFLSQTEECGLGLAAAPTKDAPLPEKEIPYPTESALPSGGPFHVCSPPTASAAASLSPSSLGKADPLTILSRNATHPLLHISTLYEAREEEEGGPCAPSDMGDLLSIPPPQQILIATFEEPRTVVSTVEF
Briefly: Heteromeric Px1/Px2 hemi-channel currents in single Xenopus oocytes (two-electrode voltage-clamp). The protocol:
as §1, §2
All experiments were carried out at 18° C. Carbenoxolone (the succinyl ester of glycyrrhetinic acid), β-glycyrrhetinic acid and flufenamic (Sigma-Aldrich) were prepared freshly by dissolving them in either water (in the case of carbenoxolone) or dimethyl sulfoxide (DMSO), whose final concentration never exceeded 0.1%. […] Oocytes were placed on a Teflon tubing in a perfusion chamber and drugs were delivered using an electronically controlled gravity flow perfusion system (ALA Scientific Instruments, Westbury, N.Y.). Cells were incubated for 15-30 minutes in the presence of the different drugs and reversibility was recorded after extensive washings in control medium. Current-voltage (I-V) relationships were generated by plotting peak current values above holding currents (ΔIm) versus membrane potential. The time constants (τ) of voltage-dependent transitions of hemi-channel currents were calculated using data fitting functions in Origin 6.0 (Microcal Software, Northampton, Mass.). In all experiments, positive controls showing the effect of the tested drugs were routinely included.
(In general: In two-electrode clamp one electrode senses voltage and the other passes current.)

A further experiment concerns the target T3, Cx46 hemi-channels (Rattus norvegicus, UniProt P29414).
T3 construct: expressed in transfected cells; host or cells: Xenopus laevis oocytes injected with Cx46 RNA (4 ng/cell) plus antisense to endogenous Cx38
Briefly: Cx46 hemi-channel currents in single Xenopus oocytes (two-electrode voltage-clamp). The protocol: as §1, §2
All experiments were carried out at 18° C. Carbenoxolone (the succinyl ester of glycyrrhetinic acid), β-glycyrrhetinic acid and flufenamic (Sigma-Aldrich) were prepared freshly by dissolving them in either water (in the case of carbenoxolone) or dimethyl sulfoxide (DMSO), whose final concentration never exceeded 0.1%. […] Cells were incubated for 15-30 minutes in the presence of the different drugs and reversibility was recorded after extensive washings in control medium. […] The time constants (τ) of voltage-dependent transitions of hemi-channel currents were calculated using data fitting functions in Origin 6.0 (Microcal Software, Northampton, Mass.). […]

T1 sequence (P60570 whole entry): as the sequence (P60570 whole entry) above

For the compound `CC1(C)[C@@H](OC(=O)CCC(=O)O)CC[C@]2(C)[C@H]3C(=O)C=C4[C@@H]5C[C@@](C)(C(=O)O)CC[C@]5(C)CC[C@@]4(C)[C@]3(C)CC[C@@H]12` [carbenoxolone], the “effect on time constant (τ) of Px1 channel closure” value on Px1 hemi-channels (3 μM CBX, +60 mV) is on record as “gated much faster than in control medium”. For the same compound, the “time constants (τ) of Px1 channel closure, faster than in control medium” value at Px1 hemi-channels (3 μM CBX, depolarized to +60 mV from −40 mV, first order exponential decay fit) is reported as “approximately 10 times”. Further, the “decrease of Px1 hemi-channel currents” value on Px1 hemi-channels (10 μM CBX, 30 min incubation) is 50-60%. On Px1 hemi-channels (30 μM carbenoxolone, 10-30 min incubation), the “effect on Px1 currents” value was “completely suppressed Px1 currents”. Further, the “peak amplitude of Px1 currents at +60 mV” value on Px1 hemi-channels (30 μM carbenoxolone, 10-30 min incubation, control medium 1189±170 nA, n=4) is 255±47 nA. Also, the “effect on Px1 hemi-channel currents” value on Px1 hemi-channels (50 μM, 30 min incubation, reversible on washout, listed as CBX) was “robust and reversible decrease; also recorded: strongly blocked”; on Px1 hemi-channels (very low CBX concentrations (<1 μM)), “ineffective”. For the same compound, the Hill coefficient at Px1 hemi-channels (concentration dependence of blockade of Px1 hemi-channel currents) is on record as approximately 1. Besides, the IC50 on Px1 hemi-channels (normalized peak currents at +60 mV, fit to Hill equation, 3-9 cells, read-out: IC50 of blockade of Px1 hemi-channel currents) was 5 µM and ~5 µM. Also, the “reversibility of inhibition of Px1 hemi-channels” value at Px1 hemi-channels (up to highest dose tested (100 μM), washout and 30 min in control medium) is “always reversible”. Also, the “decrease of Px1/Px2 hemi-channel currents” value on Px1/Px2 hemi-channels (10 μM CBX, 30 min incubation) was 50-60%. In addition, the “current amplitude at the +60 mV depolarization step” value at Px1/Px2 hemi-channels (10 μM CBX, control medium 612±50 nA, n=6 cells) turned out to be 266±24 nA. Besides, the “current amplitude at the +60 mV depolarization step after reversibility period” value on Px1/Px2 hemi-channels (after 10 μM CBX, washout and 30 min in control medium, n=6 cells) was determined as 541±70 nA. Further, on Cx46 hemi-channels (10 μM CBX, 30 min incubation), the “effect on I-V relationship of Cx46-expressing oocytes” value is “virtually identical to that measured in control medium”.

Turning to `O=C(O)c1ccccc1Nc1cccc(C(F)(F)F)c1` [flufenamic acid], at Px1 hemi-channels (30 μM FFA, 30 min, at the more positive potentials), the “inhibition of Px1 currents” value is on record as 10-15%. Further, the “effect on time constant (τ) of Px1 channel closure” value on Px1 hemi-channels (300 μM FFA, +60 mV, listed as FFA) is given as “did not affect the time constant of channel closure; also recorded: did not show any appreciable change”. For the same compound, the “extent of Px1 channel blockade” value at Px1 hemi-channels (highest FFA concentration used (300 μM), +60 mV) is on record as not above 33%. Besides, the “effect on Px1 hemi-channels” value on Px1 hemi-channels (increasing FFA concentrations up to 300 μM, 30 min, listed as FFA) is “moderate inhibition of Px1 currents; also recorded: modest inhibition of Px1 hemi-channels only at the highest dose”. Moreover, the “inhibitory effect on pannexins” value on Px1 hemi-channels (summary statement) is “only a modest inhibitory effect”. At Px1/Px2 hemi-channels (30 μM FFA, n=12), the “inhibition of Px1/Px2 current amplitudes at +60 mV” value is “about 15%”. Further, the “Px1/Px2 current amplitude at +60 mV” value turned out to be 504±101 nA on Px1/Px2 hemi-channels (30 μM FFA, 603±123 nA in MB, n=12) and 448±104 nA on Px1/Px2 hemi-channels (300 μM FFA, 609±135 nA before, n=11). Besides, the inhibition at 300 µM on Px1/Px2 hemi-channels (highest FFA concentration (300 μM), n=11, read-out: inhibition of Px1/Px2 current amplitudes at +60 mV) was 27%. For the same compound, at Cx46 hemi-channels (30 μM FFA, 30 min application, starting with the 0 mV depolarization step), the “effect on Cx46 hemi-channels” value was “strong (P<0.005) and fully reversible inhibition”. Besides, the “effect on Cx46 hemi-channel currents” value at Cx46 hemi-channels (increasing FFA concentrations, 300 μM FFA, 30 min, listed as FFA) is “virtually suppressed Cx46 hemi-channels; also recorded: almost complete blockade”.

`CC1(C)[C@@H](O)CC[C@]2(C)[C@H]3C(=O)C=C4[C@H]5C[C@@](C)(C(=O)O)CC[C@]5(C)CC[C@@]4(C)[C@]3(C)CC[C@@H]12` [βGA, β-glycyrrhetinic acid]: at Px1 hemi-channels (50 μM, 30 min incubation, reversible on washout), the “effect on Px1 hemi-channel currents” value is “robust and reversible decrease; also recorded: strongly blocked”.
